Laboratory results reported in patent publication US20130310427A1, “INHIBITORS OF HCV NS5A PROTEIN” (PRESIDIO PHARMACEUTICALS, INC., priority 2010, published 2013).
pEC50: −log10 of the molar value.

System: bicistronic genotype 1b replicon in Huh 7 cells (1b_Huh-Luc/Neo-ET cell line)
Assay: HCV replicon assay, luciferase enzyme activity readout
Type: cell-based
Conditions: Hepatitis C virus, 1b_Huh-Luc/Neo-ET replicon cells, 72 h incubation, Bright-Glo luciferase readout, EC50 ranges, read-out: Inhibition of HCV genotype 1b
Description: Biological activity of the compounds of the invention was determined using an HCV replicon assay. The 1b_Huh-Luc/Neo-ET cell line persistently expressing a bicistronic genotype 1b replicon in Huh 7 cells was obtained from ReBLikon GMBH. This cell line was used to test compound inhibition using luciferase enzyme activity readout as a measurement of compound inhibition of replicon levels.
On Day 1 (the day after plating), each compound is added in triplicate to the cells. Plates incubated for 72 h prior to running the luciferase assay. Enzyme activity was measured using a Bright-Glo Kit (cat. number E2620) manufactured by Promega Corporation. The following equation was used to generate a percent control value for each compound.
% Control=(Average Compound Value/Average Control)*100
The EC50 value was determined using GraphPad Prism and the following equation:
Y=Bottom+(Top−Bottom)/(1+10̂((Log IC50−X)*HillSlope))
EC50 values of compounds are repeated several times in the replicon assay.

| Compound | pEC50 |
| --- | --- |
| COC(=O)N[C@H](C(=O)N1CC(C2CC2)=C[C@H]1c1nc2ccc(C#Cc3ccc(-c4cnc([C@@H]5CCCN5C(=O)[C@@H](NC(=O)OC)C(C)C)[nH]4)cc3)cc2[nH]1)C(C)C [Compound 115] | > 9.00 |
| COC(=O)N[C@H](C(=O)N1CC(C)=C[C@H]1c1ncc(-c2ccc3cc(-c4ccc5nc([C@@H]6C=C(C7CC7)CN6C(=O)[C@@H](NC(=O)OC)C(C)C)[nH]c5c4)ccc3c2)[nH]1)C(C)C [Compound 122] | > 9.00 |
| COC(=O)N[C@H](C(=O)N1CC(C)=C[C@H]1c1ncc(-c2ccc3c(c2)Oc2ccc(-c4cnc([C@@H]5C=C(C)CN5C(=O)[C@@H](NC(=O)OC)C(C)C)[nH]4)cc2C3(C)C)[nH]1)C(C)C [Compound 112] | > 9.00 |
| COC(=O)N[C@H](C(=O)N1CC(C)=C[C@H]1c1nc2ccc(C#Cc3ccc(-c4cnc([C@@H]5CCCN5C(=O)[C@@H](NC(=O)OC)C(C)C)[nH]4)cc3)cc2[nH]1)C(C)C [Compound 104] | > 9.00 |
| COC(=O)N[C@H](C(=O)N1CC(C)=C[C@H]1c1ncc(-c2ccc(-c3ccc4cc(-c5cnc([C@@H]6C=C(C)CN6C(=O)[C@@H](NC(=O)OC)C(C)C)[nH]5)ccc4c3)cc2)[nH]1)C(C)C [Compound 121] | > 9.00 |
| COC(=O)N[C@H](C(=O)N1CC(C)=C[C@H]1c1ncc(-c2ccc3cc(-c4ccc5nc([C@@H]6CCCN6C(=O)[C@@H](NC(=O)OC)C(C)C)[nH]c5c4)ccc3c2)[nH]1)C(C)C [Compound 119] | > 9.00 |
| COC(=O)N[C@H](C(=O)N1CC(C)=C[C@H]1c1ncc(-c2ccc3cc(-c4ccc(-c5cnc([C@@H]6CCCN6C(=O)[C@@H](NC(=O)OC)C(C)C)[nH]5)cc4)ccc3c2)[nH]1)C(C)C [Compound 120] | > 9.00 |
| COC(=O)N[C@H](C(=O)N1CC(C)=CC1c1ncc(-c2ccc(-c3ccc4cc(-c5cnc([C@@H]6CCCN6C(=O)[C@@H](NC(=O)OC)C(C)C)[nH]5)ccc4c3)cc2)[nH]1)C(C)C (stereo partly shown) [Compound 101] | > 9.00 |
| COC(=O)N[C@H](C(=O)N1CC(C2CC2)=C[C@H]1c1nc2ccc(-c3ccc4cc(-c5cnc([C@@H]6CCCN6C(=O)[C@@H](NC(=O)OC)C(C)C)[nH]5)ccc4c3)cc2[nH]1)C(C)C [Compound 114] | > 9.00 |
| COC(=O)N[C@H](C(=O)N1CC(C)=C[C@H]1c1ncc(-c2ccc(C#Cc3ccc4c(ccc5nc([C@@H]6CCCN6C(=O)[C@@H](NC(=O)OC)C(C)C)[nH]c54)c3)cc2)[nH]1)C(C)C [Compound 118] | > 9.00 |
| COC(=O)N[C@H](C(=O)N1CC(C2CC2)=C[C@H]1c1ncc(-c2ccc(C#Cc3ccc(-c4cnc([C@@H]5CCCN5C(=O)[C@@H](NC(=O)OC)C(C)C)[nH]4)cc3)cc2)[nH]1)C(C)C [Compound 110] | > 9.00 |
| COC(=O)N[C@H](C(=O)N1CC(C)=C[C@H]1c1ncc(-c2ccc3cc(C#Cc4cnc([C@@H]5CCCN5C(=O)[C@@H](NC(=O)OC)C(C)C)[nH]4)ccc3c2)[nH]1)C(C)C [Compound 123] | > 9.00 |
| COC(=O)N[C@H](C(=O)N1CC(C2CC2)=C[C@@H]1c1nc2ccc(C#Cc3ccc(-c4cnc([C@@H]5CCCN5C(=O)[C@@H](NC(=O)OC)C(C)C)[nH]4)cc3)cc2[nH]1)C(C)C [Compound 116] | 8.00 to 9.00 |
| COC(=O)N[C@H](C(=O)N1CC(C)=C[C@H]1c1ncc(-c2ccc(C#Cc3ccc(-c4cnc([C@@H]5C=C(C)CN5C(=O)[C@@H](NC(=O)OC)C(C)C)[nH]4)cc3)cc2)[nH]1)C(C)C [Compound 111] | > 9.00 |
| COC(=O)N[C@H](C(=O)N1CC(C)=C[C@H]1c1ncc(-c2ccc(C#Cc3ccc4nc([C@@H]5CCCN5C(=O)[C@@H](NC(=O)OC)C(C)C)[nH]c4c3)cc2)[nH]1)C(C)C [Compound 102] | > 9.00 |
| COC(=O)N[C@H](C(=O)N1CC(C)=C[C@H]1c1ncc(-c2ccc3c(=O)c4cc(-c5cnc([C@@H]6C=C(C)CN6C(=O)[C@@H](NC(=O)OC)C(C)C)[nH]5)ccc4oc3c2)[nH]1)C(C)C [Compound 113] | > 9.00 |
| COC(=O)N[C@H](C(=O)N1CC(C2CC2)=C[C@H]1c1ncc(-c2ccc(C#Cc3ccc4nc([C@@H]5CCCN5C(=O)[C@@H](NC(=O)OC)C(C)C)[nH]c4c3)cc2)[nH]1)C(C)C [Compound 109] | > 9.00 |
| COC(=O)N[C@H](C(=O)N1CC(C)=C[C@H]1c1ncc(-c2ccc(C#Cc3ccc(-c4cnc([C@@H]5CCCN5C(=O)[C@@H](NC(=O)OC)C(C)C)[nH]4)cc3)cc2)[nH]1)C(C)C [Compound 103] | > 9.00 |
| COC(=O)N[C@H](C(=O)N1CC(C2CC2)=C[C@H]1c1ncc(-c2ccc(-c3ccc4cc(-c5cnc([C@@H]6CCCN6C(=O)[C@@H](NC(=O)OC)C(C)C)[nH]5)ccc4c3)cc2)[nH]1)C(C)C [Compound 105] | > 9.00 |
